The text below walks through data of the supplement of paper PMC4862054.

Assay in all cases: normalised response (% of control), CellTiter-Glo; higher = more viable cells (100 = DMSO, 0 = benzethonium chloride kill control)
What all share (conditions): incubation time: 72 h

Experiment [1] relates to DU-4475. The gist of the method:
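The table gives the normalised signal for a single concentration in each entry. Breast cancer cell lines were seeded (20 µl suspension) into 384-well plates holding compound at 5 concentrations in 10-fold steps over a compound-specific 10,000-fold range and incubated 72 h, then read for CellTox Green fluorescence (485/520 nm) and CellTiter-Glo luminescence. Normalisation on each plate used 0.1 % DMSO (100) and a positive kill control (0).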

A further experiment deals with MDA-MB-231. As to the method: (§1)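 DSRT, 72 h incubation, CellTox Green / CellTiter-Glo readout. Signal is normalised to DMSO and benzethonium chloride controls. Value is the normalised response at the highest dose.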
The test system of another experiment is MDA-MB-436. As for the experimental part:
as §1

Another experiment relates to SK-BR-3. As for the experimental part: as §1
Another experiment has as its system MDA-MB-453. As to the method:
as §1

A further experiment relates to HDQ-P1. As to the method:
as §1

The test system of another experiment is MFM-223. As to the method: as §1
A further experiment relates to HCC1599. As to the method: as §1
The subject of experiment [2] is DU-4475. As for the experimental part:
as §1
The source holds these as a separate data set.

Another experiment has as its system BT-549. As to the method: as §1
The next experiment has as its system Hs578T. As to the method:
as §1

A further experiment concerns MDA-MB-468. As for the experimental part: as §1
In a further experiment the test system is CAL-120. As to the method:
as §1

Another experiment deals with BT-474. As for the experimental part:
as §1

A further experiment has as its system CAL-51. As to the method:
as §1

A further experiment relates to HCC1937. As for the experimental part: as §1
For a further experiment, the system named is CAL-85-1. As to the method: as §1
The subject of another experiment is HCC1143. As to the method:
as §1

In the experiment with DU-4475 [1], `CCN(CC)CCOc1ccc(C(=C(Cl)c2ccccc2)c2ccccc2)cc1` [Clomifene] (1000 nM) returned a normalised response of 97.4%.
Regarding `CCN(CC)CCOc1ccc(C(=C(Cl)c2ccccc2)c2ccccc2)cc1` [Clomifene] (10000 nM), the normalised response is 4.7% in the experiment with MDA-MB-231; 87.6% in the experiment with MDA-MB-436; 27.5% with SK-BR-3; 14.7% with MDA-MB-453; 82.1% in the experiment with HDQ-P1; 26.5% with MFM-223. Also, the normalised response came to 4.3% in the experiment on HCC1599; 44.1% with DU-4475 [2]; 71.3% in the experiment on BT-549; 26.6% in the experiment on Hs578T; 65% in the experiment with MDA-MB-468; 90.2% in the experiment with CAL-120. For the same compound, the normalised response in the experiment on BT-474 amounted to 8.15%; in the experiment on CAL-51, 98.5%; with HCC1937 it was 10.1%; in the experiment on CAL-85-1, 44.9%; in the experiment with HCC1143, 95.4%.
As for `C[C@@H]1C[C@H]2[C@@H]3CCC4=CC(=O)C=C[C@]4(C)[C@@]3(F)[C@@H](O)C[C@]2(C)[C@@]1(O)C(=O)CO` [Dexamethasone] (1000 nM), the normalised response in the experiment with DU-4475 [1] turned out to be 96.2%.
Take `C[C@@H]1C[C@H]2[C@@H]3CCC4=CC(=O)C=C[C@]4(C)[C@@]3(F)[C@@H](O)C[C@]2(C)[C@@]1(O)C(=O)CO` [Dexamethasone] (10000 nM): the normalised response in the experiment with MDA-MB-231 was found to be 149%; with MDA-MB-436, 103%; with SK-BR-3, 86.9%; with MDA-MB-453, 78.7%; in the experiment on HDQ-P1 it was 82%; in the experiment on MFM-223, 94.2%. The normalised response in the experiment on HCC1599 worked out at 83.5%; in the experiment with DU-4475 [2] it was 101%; in the experiment on BT-549, 96.7%; with Hs578T, 105%; in the experiment on MDA-MB-468, 95.2%; in the experiment with CAL-120, 70.3%. In addition, the normalised response stood at 137% with BT-474; 132% in the experiment on CAL-51; 98.4% with HCC1937; 124% in the experiment on CAL-85-1; 99.6% with HCC1143.
As for `CC(C)C(=O)Nc1ccc([N+](=O)[O-])c(C(F)(F)F)c1` [Flutamide] (1000 nM), the normalised response in the experiment with DU-4475 [1] was 95.9%.
With `CC(C)C(=O)Nc1ccc([N+](=O)[O-])c(C(F)(F)F)c1` [Flutamide] (10000 nM), the normalised response with MDA-MB-231 was found to be 93.3%; with MDA-MB-436, 98.4%; with SK-BR-3 it was 105%; in the experiment on MDA-MB-453 it was 96.1%; with HDQ-P1, 92.4%; in the experiment with MFM-223 it was 90.9%. Further, the normalised response in the experiment with HCC1599 is 90%; in the experiment with DU-4475 [2], 97.7%; in the experiment on BT-549, 94.1%; in the experiment with Hs578T, 101%; with MDA-MB-468, 93.9%; with CAL-120 it was 104%. Besides, the normalised response in the experiment on BT-474 was 95.6%; with CAL-51 it was 89.6%; with HCC1937, 92.7%; with CAL-85-1, 90.1%; with HCC1143, 95%.
`COc1cc2c(Oc3ccc(NC(=O)C4(C(=O)Nc5ccc(F)cc5)CC4)cc3F)ccnc2cc1OCCCN1CCOCC1` [Foretinib] (100 nM) gave a normalised response in the experiment with DU-4475 [1] of 99.9%.
With `COc1cc2c(Oc3ccc(NC(=O)C4(C(=O)Nc5ccc(F)cc5)CC4)cc3F)ccnc2cc1OCCCN1CCOCC1` [Foretinib] (1000 nM), the normalised response with MDA-MB-231 stood at 60.2%; with MDA-MB-436, 73.3%; in the experiment on SK-BR-3, 98%; in the experiment with MDA-MB-453, 125%; in the experiment on HDQ-P1, 66.1%; in the experiment with MFM-223, 44.6%. Also, the normalised response amounted to 104% in the experiment with HCC1599; 80.8% with DU-4475 [2]; 75.5% in the experiment on BT-549; 76% in the experiment on Hs578T; 34.1% in the experiment on MDA-MB-468; 68% in the experiment with CAL-120. Moreover, the normalised response turned out to be 73% with BT-474; 67.3% in the experiment with CAL-51; 72.5% with HCC1937; 90.3% in the experiment with CAL-85-1; 69.2% with HCC1143.
Compound `NC(=O)NO` [Hydroxyurea] (10000 nM) returned a normalised response in the experiment with DU-4475 [1] of 100%.
For the compound `O=NN(CCCl)C(=O)NC1CCCCC1` [Lomustine] (1000 nM), the normalised response in the experiment with DU-4475 [1] came to 99.2%.
On to `O=C(O)CC[C@H]1CC[C@@](c2cc(F)ccc2F)(S(=O)(=O)c2ccc(Cl)cc2)CC1` [MK-0752] (100 nM), for which, in the experiment on DU-4475 [1], the normalised response turned out to be 99.2%.
As to `NC1(c2ccc(-c3nc4ccn5c(=O)[nH]nc5c4cc3-c3ccccc3)cc2)CCC1` [MK-2206] (100 nM), the normalised response with DU-4475 [1] was 97.5%.
Still for that read-out and setting: for `NC(=O)c1cccc2cn(-c3ccc([C@@H]4CCCNC4)cc3)nc12` [MK-4827] (1000 nM) the value was 86%; for `O=C(c1cc(Cc2n[nH]c(=O)c3ccccc23)ccc1F)N1CCN(C(=O)C2CC2)CC1` [Olaparib] (1000 nM), 92.5%.
Consider `CO[C@H](C(=O)[C@@H](O)[C@@H](C)O)[C@@H]1Cc2cc3cc(O[C@H]4C[C@@H](O[C@@H]5C[C@@H](O)[C@H](O)[C@@H](C)O5)[C@H](O)[C@@H](C)O4)c(C)c(O)c3c(O)c2C(=O)[C@H]1O[C@H]1C[C@@H](O[C@@H]2C[C@@H](O)[C@@H](O[C@@H]3C[C@](C)(O)[C@H](O)[C@@H](C)O3)[C@@H](C)O2)[C@H](O)[C@@H](C)O1` [Plicamycin] (1000 nM), for which the normalised response with DU-4475 [1] was determined as 99.2%.
As for `C[C@]12C=CC(=O)C=C1CC[C@@H]1[C@@H]2C(=O)C[C@@]2(C)[C@H]1CC[C@]2(O)C(=O)CO` [Prednisone] (1000 nM), the normalised response in the experiment with DU-4475 [1] stood at 99%.
On the same count and under the same terms, in the case of `CN1CCN(c2nc(C3=C(c4c[nH]c5ccccc45)C(=O)NC3=O)c3ccccc3n2)CC1` [Sotrastaurin] (1000 nM) it was 86.4%; in that of `COc1cc2c(N3CCN(C(=O)Nc4ccc(OC(C)C)cc4)CC3)ncnc2cc1OCCCN1CCCCC1` [Tandutinib] (100 nM), 99.7%; in that of `C[C@@H](C(=O)O)c1ccc(-c2ccccc2)c(F)c1` [Tarenflurbil] (1000 nM), 94.6%.
Regarding `Cn1nnc2c(C(N)=O)ncn2c1=O` [Temozolomide] (1000 nM), in the experiment on DU-4475 [1], the normalised response stood at 95%.
For the compound `CC[C@@H]1C(=O)N(C)c2cnc(Nc3ccc(C(=O)N[C@H]4CC[C@H](N5CCN(CC6CC6)CC5)CC4)cc3OC)nc2N1C(C)C` [Volasertib] (100 nM), the normalised response with DU-4475 [1] was 49.1%.
